From patent publication US20240391954A1, “MC4R AGONIST PEPTIDES” (The Regents of the University of Michigan, priority 2021, published 2024)
Positions of bridges follow the written chain, without caps; N, C: chain ends. Non-standard residues stand in square brackets, D forms with d. Residues, ends and D or L forms follow the SMILES beside them. hCit = NC(=O)NCCCC[C@H](N)C(=O)O; 2Pal = N[C@@H](Cc1ccccn1)C(=O)O; Cit = NC(=O)NCCC[C@H](N)C(=O)O; Nle = CCCC[C@H](N)C(=O)O; Aib = CC(C)(N)C(=O)O

Assays:
Assay type in all cases: cell-based
human MC4R = target: T1, human MC4R (Homo sapiens, UniProt P32245); test: split-luciferase cAMP sensor assay, agonist mode (measurement window 1), hMC4R; conditions: agonist mode; for Emax: % maximal activation, read-out: MC4R cAMP % max activation; for EC50: HEK-293 cells stably expressing hMC4R, read-out: MC4R cAMP EC50
T1 construct: host or cells: HEK-293 cells stably expressing the GScAMP22F split-luciferase cAMP sensor and hMC4R, G418 selection
T1 sequence (P32245 whole entry): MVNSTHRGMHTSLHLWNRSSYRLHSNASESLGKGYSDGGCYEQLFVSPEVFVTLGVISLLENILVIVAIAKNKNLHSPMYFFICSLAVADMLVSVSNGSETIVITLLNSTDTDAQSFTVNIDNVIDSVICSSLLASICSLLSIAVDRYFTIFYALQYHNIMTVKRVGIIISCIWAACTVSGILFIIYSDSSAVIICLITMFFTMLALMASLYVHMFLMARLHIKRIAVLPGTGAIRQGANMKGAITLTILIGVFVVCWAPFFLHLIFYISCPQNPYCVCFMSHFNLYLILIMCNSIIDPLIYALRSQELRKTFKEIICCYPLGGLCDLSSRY
In short: (§1)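 Live stable cell lines carrying receptor plus GloSensor cAMP22f split-luciferase, loaded with 4% D-luciferin in serum-free medium (~1% serum estimated during assay). Luminescence recorded during in-line peptide addition; direct agonist effect read in window 1, with 20 μM forskolin as normalization reference. EC50 from four-parameter sigmoid fit.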

human MC3R = target: T2, human MC3R (Homo sapiens, UniProt P41968); test: split-luciferase cAMP sensor assay, agonist mode (measurement window 1), hMC3R; conditions: for Emax: % maximal activation, read-out: MC3R cAMP % max activation; for Emax / EC50: agonist mode; for MC4R selectivity vs MC3R: MC4R versus MC3R; for EC50: HEK-293 cells stably expressing hMC3R, read-out: MC3R cAMP EC50
T2 construct: expressed in transfected cells; host or cells: HEK-293 cells stably expressing the GScAMP22F split-luciferase cAMP sensor (parent reporter line from Promega); MC3R clone generated in-house, G418 selection
T2 sequence (P41968 whole entry): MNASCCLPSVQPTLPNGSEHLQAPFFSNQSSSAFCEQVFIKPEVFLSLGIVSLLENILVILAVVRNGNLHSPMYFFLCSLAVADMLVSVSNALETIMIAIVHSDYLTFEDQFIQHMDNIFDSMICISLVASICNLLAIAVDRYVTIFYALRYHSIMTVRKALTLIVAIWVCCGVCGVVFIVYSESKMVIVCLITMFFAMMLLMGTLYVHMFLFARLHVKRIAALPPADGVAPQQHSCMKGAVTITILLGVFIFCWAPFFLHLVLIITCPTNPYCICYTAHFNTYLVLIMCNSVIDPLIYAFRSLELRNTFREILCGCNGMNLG
In short: as §1

human MC1R = target: T3, human MC1R (Homo sapiens, UniProt Q01726); test: split-luciferase cAMP sensor assay, agonist mode, hMC1R; conditions: MC4R versus MC1R
T3 construct: expressed in transfected cells; host or cells: HEK-293 cells stably expressing hMC1R and the GScAMP22F cAMP sensor
T3 sequence (Q01726 whole entry): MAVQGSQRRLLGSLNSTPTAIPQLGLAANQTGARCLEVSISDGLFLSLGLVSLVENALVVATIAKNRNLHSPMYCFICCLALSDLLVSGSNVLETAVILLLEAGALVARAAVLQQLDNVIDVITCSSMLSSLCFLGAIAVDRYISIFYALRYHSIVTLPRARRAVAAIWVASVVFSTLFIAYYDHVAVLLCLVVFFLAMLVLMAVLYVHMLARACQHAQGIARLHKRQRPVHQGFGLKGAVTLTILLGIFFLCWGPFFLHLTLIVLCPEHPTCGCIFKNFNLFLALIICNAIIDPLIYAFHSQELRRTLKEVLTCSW
Description: FIG. 4A-B. (A) Pharmacological properties of exemplary MC4R agonist peptides, including those with improved efficacy in the MC4R+/− mouse (CTX-1211, CTX-1227, and CTX-1228). Concentration-response agonist curves for peptides indicated at the human MC4R (red), human MC3R (blue), human MC5R (green), and human MC1R (black) were determined by a split-luciferase cAMP sensor dynamic assay in HEK-293 cells stably expressing the hMC1R, hMC3R, hMC4R, or hMC5R and the GScAMP22F cAMP sensor. Each data point represents the mean±SEM of two experiments with three replicates each per experiment. Data is normalized to the ECmax of α-MSH. (B) Same as above, for peptides representing reduced activity at the hMC1R. Inset tables indicate EC50 values for the ligand indicated for each receptor.
The assay for the determination of the cAMP response in live cells was described previously. (Yu et al., 2020, Science 368, 428-433; incorporated by reference in its entirety). Cells were seeded at a density of 20,000 cells per well using 384-well poly-D lysine-coated, clear bottom, and black-wall assay plates (Corning Inc. Corning, NJ). Cells were allowed to attach to the plates for 18 to 24 h after which growth media was removed and 20 μl of 4% D-luciferin (Promega) in CO2 independent, serum-free medium (Thermo Fisher Scientific) was added to each well. The luciferase substrate was allowed to permeate the cells for 120 min at 37° C. Intracellular cAMP levels were measured using an FDSS 7000EX Functional Drug Screening System (Hamamatsu Photonics, Hamamatsu, Japan) in the Center for Chemical Genomics at the Life Sciences Institute. This instrument allowed the in-line addition of test-peptides and receptor agonists while simultaneously acquiring the luminescence signal from live cells. Assay read steps were set as follows: baseline acquisition of 2 min, the addition of 10 μl of varying 3× concentrations of test-peptides or vehicle followed by 11 min measurement (measurement window 1), and 10 μl addition of 4× concentration of the endogenous melanocortin agonist α-MSH (Bachem, Bubendorf, Switzerland) followed by an additional 11 min response measurement (measurement window 2). The resulting final concentration of α-MSH was close to the respective receptor EC90 dose for each receptor. Intraplate concentration response curves for α-MSH and SHU-9119 (Phoenix Pharmaceuticals, Burlingame CA) were included as reference controls. A submaximal forskolin (20 μM) concentration was also included to serve as a normalization reference to account for cell number variations and differences in assay transducer efficiency between cell lines.
With this set up it was possible to evaluate the direct effect of the test-peptides on the MC3R and MC4R cell lines during measurement window 1, while the antagonist profile in the presence of EC90 α-MSH was determined on measurement window 2. For data analysis baseline luminescence (i.e. the maximum luminescence signal from the initial 0 to 2 min window) was subtracted from the maximum luminescence obtained during measurement window 1 (2 to 13 min) and measurement window 2 (13 to 24 min) to yield the test-peptide elicited responses. EC50 or IC50 potency values were determined by non-linear regression by fitting the data to a sigmoid four-parameter variable slope model using the GraphPad Prism version 8.4 software package (San Diego CA).

SMILES: C[C@H]1NC(=O)CSC[C@@H](C(N)=O)NC(=O)[C@H](Cc2c[nH]c3ccccc23)NC(=O)[C@H](CCCNC(=N)N)NC(=O)[C@@H](Cc2ccccc2)NC(=O)[C@H](CCCNC(N)=O)NC1=O [CTX-1643, Thioether-cyclo(D-Ala-Cit-D-Phe-Arg-Trp-Cys)] ({CH2CO}-[dA][Cit][dF]RWC-NH2; thioether N-6)
- Emax (human MC4R): 111%
- Emax (human MC3R): 81%
- MC4R selectivity vs MC3R (human MC3R): 133
- MC4R selectivity vs MC1R (human MC1R): 261

SMILES: CC1(C)NC(=O)CSC[C@@H](C(N)=O)NC(=O)[C@H](Cc2c[nH]c3ccccc23)NC(=O)[C@H](CCCNC(=N)N)NC(=O)[C@@H](Cc2ccccc2)NC(=O)[C@H](CCCNC(=N)N)NC1=O [CTX-1648, Thioether-cyclo(Aib-Arg-D-Phe-Arg-Trp-Cys)] ({CH2CO}-[Aib]R[dF]RWC-NH2; thioether N-6)
- Emax (human MC4R): 101%
- Emax (human MC3R): 91%
- EC50 (human MC3R): 72 nM
- MC4R selectivity vs MC3R (human MC3R): 63
- MC4R selectivity vs MC1R (human MC1R): 13

SMILES: C[C@H]1NC(=O)CSC[C@@H](C(N)=O)NC(=O)[C@H](Cc2ccccc2)NC(=O)[C@H](CCCNC(=N)N)NC(=O)[C@@H](Cc2ccccc2)NC(=O)[C@H](CCCNC(N)=O)NC1=O [CTX-1658, Thioether-cyclo(D-Ala-Cit-D-Phe-Arg-Phe-Cys)] ({CH2CO}-[dA][Cit][dF]RFC-NH2; thioether N-6)
- EC50 (human MC4R): > 10000 nM
- EC50 (human MC3R): > 10000 nM
- MC4R selectivity vs MC3R (human MC3R): Not active
- MC4R selectivity vs MC1R (human MC1R): Not active

SMILES: N=C(N)NCCC[C@@H]1NC(=O)[C@@H](Cc2ccccc2)NC(=O)[C@H](Cc2c[nH]cn2)NC(=O)CNC(=O)CSC[C@@H](C(N)=O)NC(=O)[C@H](Cc2ccccc2)NC1=O [CTX-1653, Thioether-cyclo(Gly-His-D-Phe-Arg-Phe-Cys)] ({CH2CO}-GH[dF]RFC-NH2; thioether N-6)
- Emax (human MC4R): 83%
- EC50 (human MC4R): 1230 nM
- EC50 (human MC3R): > 10000 nM
- MC4R selectivity vs MC3R (human MC3R): >8
- MC4R selectivity vs MC1R (human MC1R): 0.83

SMILES: C[C@H]1NC(=O)CSC[C@@H](C(N)=O)NC(=O)[C@H](Cc2ccccc2)NC(=O)[C@H](CCCNC(=N)N)NC(=O)[C@@H](Cc2ccccc2)NC(=O)[C@H](Cc2c[nH]cn2)NC1=O [CTX-1656, Thioether-cyclo(D-Ala-His-D-Phe-Arg-Phe-Cys)] ({CH2CO}-[dA]H[dF]RFC-NH2; thioether N-6)
- Emax (human MC4R): 98%
- EC50 (human MC4R): 1400 nM
- Emax (human MC3R): 86%
- MC4R selectivity vs MC3R (human MC3R): 1.64
- MC4R selectivity vs MC1R (human MC1R): 1

SMILES: CC(=O)N[C@@H](CCCNC(=N)N)C(=O)N[C@H]1CSSC[C@@H](C(N)=O)NC(=O)[C@H](Cc2ccccc2)NC(=O)[C@H](CCCNC(=N)N)NC(=O)[C@@H](Cc2ccccc2)NC(=O)[C@H](CCCCNC(N)=O)NC(=O)C(C)(C)NC1=O [CTX-1603, Arg-cyclo(Cys-Aib-homo-Cit-D-Phe-Arg-Phe-Cys)] (Ac-RC[Aib][hCit][dF]RFC-NH2; disulfide 2-8 (inferred))
- Emax (human MC4R): 91%
- EC50 (human MC3R): > 10000 nM
- MC4R selectivity vs MC3R (human MC3R): >18
- MC4R selectivity vs MC1R (human MC1R): 2.46

SMILES: CCCC[C@H](NC(=O)[C@H](CCCNC(=N)N)NC(C)=O)C(=O)N[C@H]1CSSC[C@@H](C(N)=O)NC(=O)[C@H](Cc2c[nH]c3ccccc23)NC(=O)[C@H](CCCNC(=N)N)NC(=O)[C@@H](Cc2ccccc2)NC(=O)[C@H](Cc2ccccn2)NC1=O [CTX-1619, Arg-Nle-cyclo(Cys-Pal(2′)-D-Phe-Arg-Trp-Cys)] (Ac-R[Nle]C[2Pal][dF]RWC-NH2; disulfide 3-8 (inferred))
- Emax (human MC4R): 99%
- EC50 (human MC4R): 2.6 nM
- Emax (human MC3R): 84%
- MC4R selectivity vs MC3R (human MC3R): 13
- MC4R selectivity vs MC1R (human MC1R): 86

SMILES: CC(=O)N[C@H]1CSSC[C@@H](C(N)=O)NC(=O)[C@H](Cc2ccccc2)NC(=O)[C@H](CCCNC(=N)N)NC(=O)[C@@H](Cc2ccccc2)NC(=O)[C@H](CCCNC(=N)N)NC(=O)CNC1=O [CTX-1638, cyclo(Cys-Gly-Arg-D-Phe-Arg-Phe-Cys)] (Ac-CGR[dF]RFC-NH2; disulfide 1-7)
- Emax (human MC4R): 110%
- Emax (human MC3R): 75%
- MC4R selectivity vs MC3R (human MC3R): 1.66
- MC4R selectivity vs MC1R (human MC1R): 1.04
